How the values were obtained:
[1] = Biodistribution in iv dosed Sprague-Dawley rats fat after 2 mins by gamma counter; assay type: ADME, organism-based, Adipose tissue; details: rat, in vivo
[2] = Biodistribution in iv dosed Sprague-Dawley rats fat after 60 mins by gamma counter; assay type: ADME, organism-based, Adipose tissue; details: rat, in vivo, 1 h
[3] = Biodistribution in iv dosed Sprague-Dawley rats stomach after 30 mins by gamma counter; assay type: ADME, organism-based; details: rat, in vivo, 0.5 h
[4] = Biodistribution in iv dosed Sprague-Dawley rats fat after 10 mins by gamma counter; assay type: ADME, organism-based, Adipose tissue; details: rat, in vivo
Blood [5] = assay: Biodistribution in iv dosed Sprague-Dawley rats blood after 0.5 min by gamma counter; assay type: ADME, organism-based; details: rat, in vivo
[6] = Biodistribution in iv dosed Sprague-Dawley rats small intestine after 60 mins by gamma counter; assay type: ADME, organism-based; details: rat, in vivo, 1 h
Bone [7] = assay: Biodistribution in iv dosed Sprague-Dawley rats bone after 2 mins by gamma counter; assay type: ADME, organism-based, Bone element; details: rat, in vivo
Muscle tissue [8] = assay: Biodistribution in iv dosed Sprague-Dawley rats muscle after 0.5 min by gamma counter; assay type: ADME, organism-based; details: rat, in vivo
Liver [9] = assay: Biodistribution in iv dosed Sprague-Dawley rats liver after 0.5 min by gamma counter; assay type: ADME, organism-based; details: rat, in vivo
Spleen [10] = assay: Biodistribution in iv dosed Sprague-Dawley rats spleen after 2 mins by gamma counter; assay type: ADME, organism-based; details: rat, in vivo
[11] = Biodistribution in iv dosed Sprague-Dawley rats fat after 0.5 min by gamma counter; assay type: ADME, organism-based, Adipose tissue; details: rat, in vivo
Liver [12] = assay: Biodistribution in iv dosed Sprague-Dawley rats liver after 10 mins by gamma counter; assay type: ADME, organism-based; details: rat, in vivo
Muscle tissue [13] = assay: Biodistribution in iv dosed Sprague-Dawley rats muscle after 30 mins by gamma counter; assay type: ADME, organism-based; details: rat, in vivo, 0.5 h
Brain = assay: Biodistribution in iv dosed Sprague-Dawley rats brain after 0.5 min by gamma counter; assay type: ADME, organism-based; details: rat, in vivo
Muscle tissue [14] = assay: Biodistribution in iv dosed Sprague-Dawley rats muscle after 60 mins by gamma counter; assay type: ADME, organism-based; details: rat, in vivo, 1 h
[15] = Biodistribution in iv dosed Sprague-Dawley rats bladder and urine after 30 mins by gamma counter; assay type: ADME, organism-based; details: rat, in vivo, 0.5 h
Liver [16] = assay: Biodistribution in iv dosed Sprague-Dawley rats liver after 2 mins by gamma counter; assay type: ADME, organism-based; details: rat, in vivo
[17] = Biodistribution in iv dosed Sprague-Dawley rats large intestine after 60 mins by gamma counter; assay type: ADME, organism-based; details: rat, in vivo, 1 h
[18] = Biodistribution in iv dosed Sprague-Dawley rats stomach after 0.5 min by gamma counter; assay type: ADME, organism-based; details: rat, in vivo
Heart [19] = assay: Biodistribution in iv dosed Sprague-Dawley rats heart after 60 mins by gamma counter; assay type: ADME, organism-based; details: rat, in vivo, 1 h
Lung [20] = assay: Biodistribution in iv dosed Sprague-Dawley rats lung after 30 mins by gamma counter; assay type: ADME, organism-based; details: rat, in vivo, 0.5 h
Kidney [21] = assay: Biodistribution in iv dosed Sprague-Dawley rats kidneys after 60 mins by gamma counter; assay type: ADME, organism-based; details: rat, in vivo, 1 h
Kidney [22] = assay: Biodistribution in iv dosed Sprague-Dawley rats kidneys after 0.5 min by gamma counter; assay type: ADME, organism-based; details: rat, in vivo
Muscle tissue [23] = assay: Biodistribution in iv dosed Sprague-Dawley rats muscle after 10 mins by gamma counter; assay type: ADME, organism-based; details: rat, in vivo
[24] = Biodistribution in iv dosed Sprague-Dawley rats small intestine after 10 mins by gamma counter; assay type: ADME, organism-based; details: rat, in vivo
Bone [25] = assay: Biodistribution in iv dosed Sprague-Dawley rats bone after 30 mins by gamma counter; assay type: ADME, organism-based, Bone element; details: rat, in vivo, 0.5 h
Spleen [26] = assay: Biodistribution in iv dosed Sprague-Dawley rats spleen after 60 mins by gamma counter; assay type: ADME, organism-based; details: rat, in vivo, 1 h
Heart [27] = assay: Biodistribution in iv dosed Sprague-Dawley rats heart after 2 mins by gamma counter; assay type: ADME, organism-based; details: rat, in vivo
Heart [28] = assay: Biodistribution in iv dosed Sprague-Dawley rats heart after 30 mins by gamma counter; assay type: ADME, organism-based; details: rat, in vivo, 0.5 h
Lung [29] = assay: Biodistribution in iv dosed Sprague-Dawley rats lung after 60 mins by gamma counter; assay type: ADME, organism-based; details: rat, in vivo, 1 h
Blood [30] = assay: Biodistribution in iv dosed Sprague-Dawley rats blood after 10 mins by gamma counter; assay type: ADME, organism-based; details: rat, in vivo
Blood [31] = assay: Biodistribution in iv dosed Sprague-Dawley rats blood after 30 mins by gamma counter; assay type: ADME, organism-based; details: rat, in vivo, 0.5 h
[32] = Biodistribution in iv dosed Sprague-Dawley rats large intestine after 0.5 min by gamma counter; assay type: ADME, organism-based; details: rat, in vivo
[33] = Biodistribution in iv dosed Sprague-Dawley rats stomach after 60 mins by gamma counter; assay type: ADME, organism-based; details: rat, in vivo, 1 h
[34] = Biodistribution in iv dosed Sprague-Dawley rats small intestine after 2 mins by gamma counter; assay type: ADME, organism-based; details: rat, in vivo
Spleen [35] = assay: Biodistribution in iv dosed Sprague-Dawley rats spleen after 0.5 min by gamma counter; assay type: ADME, organism-based; details: rat, in vivo
Lung [36] = assay: Biodistribution in iv dosed Sprague-Dawley rats lung after 0.5 min by gamma counter; assay type: ADME, organism-based; details: rat, in vivo
[37] = Drug uptake in Wistar rat brain prefrontal cortex olfactory tubercles at 0.1 MBq/ml after 60 mins by autoradiographic analysis; assay type: ADME, tissue-based; details: in vivo, 1 h

- Drug uptake [1]: 1.8 %ID
- Drug uptake [2]: 0.3 %ID
- Drug uptake [3]: 0.5 %ID
- Drug uptake [4]: 1.8 %ID
- Drug uptake (Blood [5]): 8.7 %ID
- Drug uptake [6]: 74.5 %ID
- Drug uptake (Bone [7]): 3 %ID
- Drug uptake (Muscle tissue [8]): 56.1 %ID
- Drug uptake (Liver [9]): 14.6 %ID
- Drug uptake (Spleen [10]): 0.3 %ID
- Drug uptake [11]: 0.6 %ID
- Drug uptake (Liver [12]): 33.7 %ID
- Drug uptake (Muscle tissue [13]): 16.5 %ID
- Drug uptake (Brain): 0.1 %ID
- Drug uptake (Muscle tissue [14]): 4.6 %ID
- Drug uptake [15]: 4.2 %ID
- Drug uptake (Liver [16]): 28.5 %ID
- Drug uptake [17]: 1.9 %ID
- Drug uptake [18]: 0.8 %ID
- Drug uptake (Heart [19]): 0.1 %ID
- Drug uptake (Lung [20]): 0.4 %ID
- Drug uptake (Kidney [21]): 0.5 %ID
- Drug uptake (Kidney [22]): 4 %ID
- Drug uptake (Muscle tissue [23]): 27.2 %ID
- Drug uptake [24]: 24.5 %ID
- Drug uptake (Bone [25]): 1.5 %ID
- Drug uptake (Spleen [26]): 0 %ID
- Drug uptake (Heart [27]): 1.1 %ID
- Drug uptake (Heart [28]): 0.2 %ID
- Drug uptake (Lung [29]): 0.1 %ID
- Drug uptake (Blood [30]): 2.8 %ID
- Drug uptake (Blood [31]): 1.5 %ID
- Drug uptake [32]: 0.9 %ID
- Drug uptake [33]: 0.2 %ID
- Drug uptake [34]: 7 %ID
- Drug uptake (Spleen [35]): 0.2 %ID
- Drug uptake (Lung [36]): 2.9 %ID
- Drug uptake [37]: 60%
SMILES: O=C(NCC[18F])c1c[nH]c2ccc(Cc3ccccc3)cc2c1=O
